Reference: US8481584B2, “1H-thieno[2,3-c]pyrazole derivatives useful as kinase inhibitors” (Nerviano Medical Sciences S.R.L., priority 2004, dated 2013)
Read-outs that look alike come from different tables or passages of the source.

Experiments:
[1] = system: human colon cancer cell line HCT-116; assay: In vitro cell proliferation assay; format: cell-based; conditions: HCT-116, 72 hours of treatment, cell count, read-out: Cell Antiproliferation IC50
Procedure: The compounds of the invention were further tested, in vitro, to assess the anti-proliferative effect onto cell cultures.
In Vitro Cell Proliferation Assay
The human colon cancer cell line HCT-116 was seeded at 5000 cells/cm2 in 24 wells plate (Costar) using F12 medium (Gibco) supplemented with 10% FCS (EuroClone, Italy) 2 mM L-glutamine and 1% penicillin/streptomycin and maintained at 37° C., 5% CO2 and 96% relative humidity. The following day, plates were treated in duplicates with 5 ul of an appropriate dilution of compounds starting from a 10 mM stock in DMSO. Two untreated control wells were included in each plate. After 72 hours of treatment, medium was withdrawn and cells detached from each well using 0.5 mL of 0.05% (w/v) Trypsin, 0.02% (w/v) EDTA (Gibco). Samples were diluted with 9.5 mL of Isoton (Coulter) and counted using a Multisizer 3 cell counter (Beckman Coulter). Data were evaluated as percent of the control wells: % of CTR=(Treated−Blank)/(Control−Blank).
IC50 values were calculated by LSW/Data Analysis using Microsoft Excel sigmoidal curve fitting.

Aurora-2 = biological target: T1, Aurora-2 (Homo sapiens, UniProt O14965); assay: Inhibition assay of Aurora-2 activity (SPA technology); format: biochemical
T1 sequence (O14965 1-403): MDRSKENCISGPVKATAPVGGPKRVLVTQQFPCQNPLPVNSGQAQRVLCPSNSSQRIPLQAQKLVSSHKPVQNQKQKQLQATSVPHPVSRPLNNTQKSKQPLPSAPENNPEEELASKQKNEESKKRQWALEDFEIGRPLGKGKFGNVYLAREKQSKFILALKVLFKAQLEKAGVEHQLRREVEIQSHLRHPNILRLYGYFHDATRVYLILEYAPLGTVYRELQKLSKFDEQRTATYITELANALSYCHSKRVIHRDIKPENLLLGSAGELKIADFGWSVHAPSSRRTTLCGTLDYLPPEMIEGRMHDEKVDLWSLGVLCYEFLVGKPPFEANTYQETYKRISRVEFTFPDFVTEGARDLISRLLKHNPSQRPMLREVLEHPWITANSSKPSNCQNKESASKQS
Procedure: The inhibiting activity and the potency of selected compounds is determined through a method of assay based on the use of the SPA technology (Amersham Pharmacia Biotech).
The assay consists of the transfer of radioactivity labelled phosphate moiety by the kinase to a biotinylated substrate. The resulting 33P-labelled biotinylated product is allowed to bind to streptavidin-coated SPA beads (biotin capacity 130 pmol/mg), and light emitted was measured in a scintillation counter.
Inhibition Assay of Aurora-2 Activity
After 60 minutes at room temperature incubation, reaction was stopped and biotinylated peptide captured by adding 100 μl of bead suspension.
Stratification: 100 μl of CsCl2 5 M were added to each well and let stand 4 hour before radioactivity was counted in the Top-Count instrument.
Experimental data were analyzed by the computer program GraphPad Prizm using the four parameter logistic equation: y=bottom+(top−bottom)/(1+10^((logIC50−x)*slope)) where x is the logarithm of the inhibitor concentration, y is the response; y starts at bottom and goes to top with a sigmoid shape.

[2] = SPA assay, 10 μM ATP, 60 minutes at room temperature, read-out: Aurora-2 inhibition IC50
[3] = screened according to the methods of the pharmacology section, read-out: IC50 values for Aurora-2 inhibition

`CC(C)(NC(=O)c1cc2c(NC(=O)c3ccc(N4CCOCC4)cc3)n[nH]c2s1)c1ccccc1` [Compound 1, N-(1-methyl-1-phenylethyl)-3-[(4-morpholin-4-ylbenzoyl)amino]-1H-thieno[2,3-c]pyrazole-5-carboxamide] showed an IC50 [1] of 0.006 µM, an IC50 (Aurora-2; [2]) of 0.005 µM and an IC50 (Aurora-2; [3]) of less than 0.02 µM.

`O=C(Nc1n[nH]c2sc(C(=O)NC3(c4ccccc4)CC3)cc12)c1ccc(N2CCOCC2)cc1` [Compound 2, 3-[(4-morpholin-4-ylbenzoyl)amino]-N-(1-phenylcyclopropyl)-1H-thieno[2,3-c]pyrazole-5-carboxamide] showed an IC50 [1] of 0.023 µM, an IC50 (Aurora-2; [2]) of 0.003 µM and an IC50 (Aurora-2; [3]) of less than 0.02 µM.

`C[C@@H](NC(=O)c1cc2c(NC(=O)c3ccc(N4CCOCC4)cc3)n[nH]c2s1)c1ccc(F)cc1` [Compound 3, N-[(1R)-1-(4-fluorophenyl)ethyl]-3-[(4-morpholin-4-ylbenzoyl)amino]-1H-thieno[2,3-c]pyrazole-5-carboxamide] gave an IC50 [1] of 0.035 µM, an IC50 (Aurora-2; [2]) of 0.006 µM and an IC50 (Aurora-2; [3]) of less than 0.02 µM.

With `O=C(Nc1n[nH]c2sc(C(=O)N[C@H](CN3CCCC3)c3ccccc3)cc12)c1ccc(N2CCOCC2)cc1` [Compound 5, 3-[(4-morpholin-4-ylbenzoyl)amino]-N-[(1S)-1-phenyl-2-pyrrolidin-1-ylethyl]-1H-thieno[2,3-c]pyrazole-5-carboxamide] the IC50 [1] was 0.03 µM, the IC50 (Aurora-2; [2]) was 0.009 µM and the IC50 (Aurora-2; [3]) was less than 0.02 µM.

For `CC(C)(NC(=O)c1cc2c(NC(=O)c3cccs3)n[nH]c2s1)c1ccccc1` [Compound 16, N-(1-methyl-1-phenylethyl)-3-[(thien-2-ylcarbonyl)amino]-1H-thieno[2,3-c]pyrazole-5-carboxamide], the IC50 [1] was 0.056 µM, the IC50 (Aurora-2; [2]) was 0.003 µM and the IC50 (Aurora-2; [3]) was less than 0.02 µM.

In the case of `CN1CCN(c2ccc(C(=O)Nc3n[nH]c4sc(C(=O)NC(C)(C)c5ccccc5)cc34)cc2)CC1` [Compound 29, N-(1-methyl-1-phenylethyl)-3-{[4-(4-methylpiperazin-1-yl)benzoyl]amino}-1H-thieno[2,3-c]pyrazole-5-carboxamide], the IC50 [1] is reported as 0.002 µM, the IC50 (Aurora-2; [2]) is reported as 0.001 µM and the IC50 (Aurora-2; [3]) is reported as less than 0.02 µM.

For `C[C@@H](NC(=O)c1cc2c(NC(=O)c3ccc(N4CCN(C)CC4)cc3)n[nH]c2s1)c1ccccc1` [Compound 36, 3-{[4-(4-methylpiperazin-1-yl)benzoyl]amino}-N-[(1R)-1-phenylethyl]-1H-thieno[2,3-c]pyrazole-5-carboxamide], the IC50 [1] was 0.005 µM.

`CN1CCN(c2ccc(C(=O)Nc3n[nH]c4sc(C(=O)NC(C)(C)c5cccc(Cl)c5)cc34)cc2)CC1` [Compound 132, 3-[4-(4-Methyl-piperazin-1-yl)-benzoylamino]-1H-thieno[2,3-c]pyrazole-5-carboxylic acid[1-(3-chloro-phenyl)-1-methyl-ethyl]amide] was tested, and the IC50 (Aurora-2; [3]) was less than 0.02 µM.

`COc1ccc(C(=O)Nc2n[nH]c3sc(C(=O)NC4(c5ccccc5)CC4)cc23)cc1` [Compound 134, 3-(4-Methoxy-benzoylamino)-1H-thieno[2,3-c]pyrazole-5-carboxylic acid (1-phenyl-cyclopropyl)-amide] was tested, and the IC50 (Aurora-2; [3]) was less than 0.02 µM.

`CC(C)(NC(=O)c1cc2c(NC(=O)c3ccc(N4CCOCC4)nc3)n[nH]c2s1)c1ccccc1` [Compound 136, 3-[(6-Morpholin-4-yl-pyridine-3-carbonyl)-amino]-1H-thieno[2,3-c]pyrazole-5-carboxylic acid (1-methyl-1-phenyl-ethyl)-amide] was tested, and the IC50 (Aurora-2; [3]) was less than 0.02 µM.

For `C[C@](CN1CCOCC1)(NC(=O)c1cc2c(NC(=O)c3ccc(N4CCOCC4)cc3)n[nH]c2s1)c1ccccc1` [Compound 137, 3-(4-Morpholin-4-yl-benzoylamino)-1H-thieno[2,3-c]pyrazole-5-carboxylic acid ((S)-1-methyl-2-morpholin-4-yl-1-phenyl-ethyl)-amide], the IC50 (Aurora-2; [3]) was less than 0.02 µM.

For `CC(C)(NC(=O)c1cc2c(NC(=O)c3ccc(N4CCOCC4)cc3)n[nH]c2s1)c1ccncc1` [Compound 138, 3-(4-Morpholin-4-yl-benzoylamino)-1H-thieno[2,3-c]pyrazole-5-carboxylic acid (1-methyl-1-pyridin-4-yl-ethyl)-amide], the IC50 (Aurora-2; [3]) was less than 0.02 µM.

`CN1CCN(c2ccc(C(=O)Nc3n[nH]c4sc(C(=O)NC(C)(C)c5ccc(F)cc5)cc34)cc2)CC1` [Compound 139, 3-[4-(4-Methyl-piperazin-1-yl)-benzoylamino]-1H-thieno[2,3-c]pyrazole-5-carboxylic acid [1-(4-fluoro-phenyl)-1-methyl-ethyl]amide] gave an IC50 (Aurora-2; [3]) of less than 0.02 µM.

Work on `COc1cccc(C(C)(C)NC(=O)c2cc3c(NC(=O)c4ccc(N5CCOCC5)cc4)n[nH]c3s2)c1` [Compound 140, 3-(4-Morpholin-4-yl-benzoylamino)-1H-thieno[2,3-c]pyrazole-5-carboxylic acid [1-(3-methoxy-phenyl)-1-methyl-ethyl]-amide] yielded an IC50 (Aurora-2; [3]) of less than 0.02 µM.

`CN1CCN(c2ccc(C(=O)Nc3n[nH]c4sc(C(=O)NC(C)(C)c5ccccc5F)cc34)cc2)CC1` [Compound 141, 3-[4-(4-Methyl-piperazin-1-yl)-benzoylamino]-1H-thieno[2,3-c]pyrazole-5-carboxylic acid[1-(2-fluoro-phenyl)-1-methyl-ethyl]amide] was tested, and the IC50 (Aurora-2; [3]) was less than 0.02 µM.

Compound `CN1CCN(c2ccc(C(=O)Nc3n[nH]c4sc(C(=O)NC(C)(C)c5cccc(F)c5)cc34)cc2)CC1` [Compound 142, 3-[4-(4-Methyl-piperazin-1-yl)-benzoylamino]-1H-thieno[2,3-c]pyrazole-5-carboxylic acid [1-(3-fluoro-phenyl)-1-methyl-ethyl]-amide] has an IC50 (Aurora-2; [3]) of less than 0.02 µM.

In the case of `CC(C)(NC(=O)c1cc2c(NC(=O)c3ccc(S(C)(=O)=O)cc3)n[nH]c2s1)c1ccccc1` [Compound 143, 3-(4-Methanesulfonyl-benzoylamino)-1H-thieno[2,3-c]pyrazole-5-carboxylic acid(1-methyl-1-phenyl-ethyl)-amide], the IC50 (Aurora-2; [3]) is reported as less than 0.02 µM.

With `CC(C)(NC(=O)c1cc2c(NC(=O)c3ccc(N4CCS(=O)(=O)CC4)cc3)n[nH]c2s1)c1ccccc1` [Compound 144, 3-[4-(1,1-Dioxo-thiomorpholin-4-yl)-benzoylamino]-1H-thieno[2,3-c]pyrazole-5-carboxylic acid (1-methyl-1-phenyl-ethyl)-amide] the IC50 (Aurora-2; [3]) was less than 0.02 µM.

Compound `CC(C)(NC(=O)c1cc2c(NC(=O)c3ccc(N4CCOCC4)cc3)n[nH]c2s1)c1cccc(S(C)(=O)=O)c1` [Compound 147, 3-(4-Morpholin-4-yl-benzoylamino)-1H-thieno[2,3-c]pyrazole-5-carboxylic acid [1-(3-methanesulfonyl-phenyl)-1-methyl-ethyl]amide] has an IC50 (Aurora-2; [3]) of less than 0.02 µM.

`CC(C)(NC(=O)c1cc2c(NC(=O)c3ccc(N4CCOCC4)cc3)n[nH]c2s1)c1ccccc1F` [Compound 148, 3-(4-Morpholin-4-yl-benzoylamino)-1H-thieno[2,3-c]pyrazole-5-carboxylic acid [1-(2-fluoro-phenyl)-1-methyl-ethyl]-amide] showed an IC50 (Aurora-2; [3]) of less than 0.02 µM.

Work on `CC(C)(NC(=O)c1cc2c(NC(=O)c3ccc(N4CCOCC4)cc3)n[nH]c2s1)c1cccc(F)c1` [Compound 149, 3-(4-Morpholin-4-yl-benzoylamino)-1H-thieno[2,3-c]pyrazole-5-carboxylic acid [1-(3-fluoro-phenyl)-1-methyl-ethyl]-amide] yielded an IC50 (Aurora-2; [3]) of less than 0.02 µM.

`CC(C)(NC(=O)c1cc2c(NC(=O)c3ccc(N4CCOCC4)cc3)n[nH]c2s1)c1ccc(F)cc1` [Compound 150, 3-(4-Morpholin-4-yl-benzoylamino)-1H-thieno[2,3-c]pyrazole-5-carboxylic acid [1-(4-fluoro-phenyl)-1-methyl-ethyl]-amide] showed an IC50 (Aurora-2; [3]) of less than 0.02 µM.

`CC(C)(NC(=O)c1cc2c(NC(=O)c3cccs3)n[nH]c2s1)c1ccc(F)cc1` [Compound 151, 3-[(Thiophene-2-carbonyl)-amino]-1H-thieno[2,3-c]pyrazole-5-carboxylic acid [1-(4-fluoro-phenyl)-1-methyl-ethyl]-amide] gave an IC50 (Aurora-2; [3]) of less than 0.02 µM.

Compound `O=C(Nc1n[nH]c2sc(C(=O)NCc3ccccc3)cc12)c1ccc(N2CCOCC2)cc1` [Reference compound, N-benzyl-3-[(4-morpholin-4-ylbenzoyl)amino]-1H-thieno[2,3-c]pyrazole-5-carboxamide, reference compound] has an IC50 [1] of 0.184 µM and an IC50 (Aurora-2; [2]) of 0.018 µM.
